PubChem BioAssay (NCI)
“And” between values parts separate entries of the source, which are not always exact repeats. Identical values can stand only once.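 48-hour exposure; five concentrations; linearly interpolated endpoints. GI50: concentration for 50% inhibition of growth. At the TGI there is no net growth.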

Legend:
Test in all cases: NCI tumour cell line growth inhibition, 48 h
[1] = tested on: HOP-18 NSCLC
[2] = tested on: XF 498 CNS
[3] = tested on: LXFL 529 NSCLC
[4] = tested on: M19-MEL melanoma
[5] = tested on: SNB-78 CNS
[6] = tested on: BT-549 breast
[7] = tested on: MDA-N
[8] = tested on: DMS 114 small cell lung
[9] = tested on: RXF-631 renal

| SMILES | TGI [1] | TGI [3] | TGI [4] | TGI [5] | GI50 [6] | TGI [6] | TGI [8] | also measured |
| --- | --- | --- | --- | --- | --- | --- | --- | --- |
| C/C(=N/NC(N)=S)C(CN1CCOCC1)C(C1=C(O)c2ccccc2OC1)c1ccccc1 (stereo not given) | > 100 µM | > 100 µM | > 100 µM | > 100 µM | – | – | – | TGI [2]: > 100 µM |
| COc1cc(N)c(Cl)cc1C(=O)N[C@@H]1CCN(CCCOc2ccc(F)cc2)C[C@@H]1OC | – | – | – | – | 34.9 µM | > 100 µM | – | – |
| CC(=O)/C(=N\N=C(N)N)c1ccccc1 | – | – | – | – | – | > 100 µM | – | TGI [7]: > 100 µM |
| C/C(=N\NC(=S)N1CCCC1)c1ccccn1 | – | – | – | – | 0.018 µM | 14.9 µM | – | – |
| Cc1cc(C)nc(NC(=O)COc2ccc(Cl)cc2)c1 | – | – | – | – | – | > 100 µM | – | TGI [7]: > 100 µM |
| CC(NC1CCCC[C@@H]1O)c1ccccc1 (stereo not given in full) | > 100 µM | > 100 µM | > 100 µM | > 100 µM | – | – | – | TGI [2]: > 100 µM |
| COC(=O)N[C@@H](C)CNc1nccc(-c2cn(C(C)C)nc2-c2cc(Cl)cc(NS(C)(=O)=O)c2F)n1 | – | – | – | – | > 100 µM | > 100 µM | – | – |
| CCOC(=O)NN1C(=O)C(=P(c2ccccc2)(c2ccccc2)c2ccccc2)C(C(=O)OC)=C1C | > 100 µM | > 100 µM | > 100 µM | > 100 µM | – | – | > 100 µM | TGI [2]: > 100 µM |
| Cn1cc(-c2csc(-c3ccc(Cl)cc3)n2)c2cccnc21 | – | – | – | – | 18.6 µM | 51.9 µM | – | – |
| CCS(=O)(=O)c1cccc(-c2cc(C(=O)NC3CCN(C)CC3)c(C)c3[nH]c4ncc(C)cc4c23)c1 | – | – | – | – | 1.75 µM and 0.875 µM | 5.84 µM and 2.2 µM | – | – |
| COc1ccc(N=c2nc3sc4cc(Cl)ccc4n3c(N)c2C#N)cc1 | – | – | – | – | 5.17 µM | 98 µM | – | – |
| O=S1(=O)CCC2=CC(C(F)(F)F)=CC(C(F)(F)F)=CN21 | 8.27 µM | 1.6 µM | 3.08 µM | 6.49 µM | – | 6.1 µM | 3.32 µM | TGI [7]: 35.7 µM; TGI [9]: 3.89 µM; TGI [2]: 3.42 µM |
| O=C1N=C2N=C(c3ccc(Cl)cc3)N(c3ccc(Cl)cc3)N2Sc2ccccc21 | > 100 µM | > 100 µM | > 100 µM | > 100 µM | – | – | > 100 µM | TGI [2]: 99.4 µM |
| Cc1nc(C(=O)OCc2ccccc2)cc(OCc2ccccc2)c1C | – | – | – | – | 17.9 µM | 34.2 µM | – | – |
| c1ccc(C2N=C(c3ccccn3)C(c3ccccn3)=NC2c2ccccc2)cc1 (stereo not given) | > 100 µM | > 100 µM | > 100 µM | > 100 µM | – | – | > 100 µM | TGI [2]: > 100 µM |
| CC(=O)c1nc(-c2ccc(C[C@@H](CNC(=O)CN(C)C)NC(=O)c3ccc(OC(C)C)c(Cl)c3)cc2)cn1C | – | – | – | – | 0.285 µM | 19.5 µM | – | – |
| Fc1ccc(-c2ncn(C3CCNCC3)c2-c2ccnc(Oc3ccc(Cl)cc3)n2)cc1 | – | – | – | – | 5.05 µM | 18.8 µM | – | – |
| COC(=O)C1=C(O)c2cc(OC)c(OC)c(OC)c2C(c2ccc3c(c2)OCO3)[C@@H]1C(=O)OC (stereo not given in full) | > 100 µM | > 100 µM | – | > 100 µM | – | – | 5.96 µM | TGI [9]: > 100 µM |
| O=C(OCC1=CC(=O)c2ccccc2C1=O)c1ccccc1 | – | – | – | – | 13.8 µM | 27 µM | – | – |
| O=C(NC1=C(Cl)C(=O)c2ccccc2C1=O)C(=O)c1c(O)c2ccccc2oc1=O | – | – | – | – | – | 14.6 µM | – | TGI [7]: 2.7 µM |
| CCCCS(=O)(=O)c1cc(Nc2ccc(O)c3c2C(=O)c2ccccc2C3=O)ccc1C | – | – | – | – | > 100 µM | > 100 µM | – | – |

| SMILES | TGI [1] | TGI [3] | TGI [4] | TGI [5] | GI50 [6] | TGI [6] | TGI [8] | also measured |
| --- | --- | --- | --- | --- | --- | --- | --- | --- |
| BrCc1ccc2ccc3ccc(CBr)nc3c2n1 | 5.48 µM | 3.19 µM | 14.1 µM | 4.43 µM | – | – | 15.4 µM | TGI [7]: 12.7 µM |
| COc1ccc(/C=C(\C#N)c2cc(OC)c(OC)c(OC)c2)cc1 | – | – | – | – | 0.0282 µM | 0.0883 µM | – | – |
| COc1ccc(C(=O)Cn2c(C(=O)c3ccc(Cl)cc3)nc(-c3ccccc3)c2-c2ccccc2)cc1 | – | – | – | – | > 100 µM | > 100 µM | – | – |
| CN(Cc1cnc2nc(N)nc(N)c2n1)c1c(Cl)cc(C(=O)NC(CCC(=O)O)C(=O)O)cc1Cl (stereo not given) | – | – | – | – | 1.4 µM | > 100 µM | – | – |
| Nc1ccccc1SC(/C=C/NNC1=NC(c2ccccc2)C(c2ccccc2)=NN1)c1ccccc1 (stereo not given) | – | – | 25 µM | 44.3 µM | – | – | 30.1 µM | – |
| COC1CCC(OC)C(c2nc3sccn3c2/C=N/N=C(N)N)C1 (stereo not given) | – | – | – | – | 18.4 µM | 42.4 µM | – | – |
| O=C(Nc1ccccc1)N1C(c2ccccc2)=N[C@@H](c2ccccc2)[C@@H]1c1ccccc1 | 50.7 µM | 31.6 µM | 38.7 µM | > 100 µM | – | – | 29.9 µM | TGI [9]: 79 µM |
| CCOc1ccc2cc(-c3nn(CC4CCN(C)CC4)c4ncnc(N)c34)ccc2c1 | – | – | – | – | 13.6 µM | 29 µM | – | – |
| O=C(O)CCN1C(=S)CSC1=S | – | – | – | – | – | > 100 µM | – | TGI [7]: > 100 µM |
| O=c1cc(-c2ccccc2)oc2cc(OCCCCCCCCCCOc3ccc4c(=O)cc(-c5ccccc5)oc4c3)ccc12 | > 100 µM | > 100 µM | > 100 µM | > 100 µM | – | – | > 100 µM | TGI [9]: > 100 µM; TGI [2]: > 100 µM |
| COc1cc(C=NCC(=O)CSC(c2ccccc2)c2ccccc2)ccc1O | – | – | – | – | 14 µM | 31.6 µM | – | – |
| COc1c(OC2OC(C)C(O)C(O)C2O)c(OC)c2oc(-c3ccc(O)cc3)cc(=O)c2c1O (stereo not given) | – | – | – | – | 25.4 µM | 72.6 µM | – | – |
| COc1ccc(CN2c3ccccc3Sc3ccccc32)cc1O | – | – | – | – | 0.773 µM | 17.1 µM | – | – |
| O=C(NNC(=O)c1ccncc1)C(=O)Nc1cc(Cl)c(Cl)cc1Cl | – | – | – | – | – | > 100 µM | – | TGI [7]: > 100 µM |
| CSCc1ncc(-c2ccc(C(F)(F)F)cc2)c(NC2CCCCCC2)n1 | – | – | – | – | > 10 µM | > 10 µM | – | – |
| C=C(c1ccccc1)c1cc2c(=O)[nH]ccc2n1C | – | > 100 µM | > 100 µM | > 100 µM | – | – | 50.1 µM | TGI [2]: 91 µM |
| CSC(=S)NCc1cn(C)c2ccccc12 | – | – | – | – | 20 µM | 54.2 µM | – | – |
| NCCOCCOCC(=O)O | – | > 100 µM | > 100 µM | > 100 µM | – | – | > 100 µM | – |
| O=C(O)C12C=CC(C1)c1ccccc12 (stereo not given) | > 100 µM | > 100 µM | > 100 µM | – | – | – | > 100 µM | – |
| O=C(O)C1CC2C=CCC(C2)C1 (stereo not given) | > 100 µM | > 100 µM | > 100 µM | > 100 µM | – | – | > 100 µM | TGI [2]: > 100 µM |
| CCNC(=O)COc1ccc(Cl)c(C)c1 | > 100 µM | > 100 µM | > 100 µM | > 100 µM | – | – | > 100 µM | – |
